From patent publication US20080275135A1, “Resorcinol Derivatives and Their Use for Lowering Blood Pressure” (priority 2004, published 2008)
“Also recorded” adds a separate entry of the source.

Key:
rat aortic rings [1] = details: literature, Offertaler et al. 2003; cited from earlier work
cannabinoid receptor CB2 = target: T1, cannabinoid receptor CB2 (Homo sapiens, UniProt P34972); experiment: Cannabinoid receptor binding, [3H]HU-243 displacement, transfected cells; details: data not shown
T1 construct: expressed in transfected cells
Protocol: (§1) The protocol for cannabinoid receptor binding has been previously described [Devane W. A. et al. (1992) Science 258, 1946-1949]. […] Bound and free radioligand were separated by centrifugation. The data were normalized to 100% of specific binding, which was determined with 50 nM unlabeled HU-243. The Ki value was determined using the program GraphPad Prism (Version 3.02) which follows the Cheng-Prusoff equation. A sigmoid dose-response (variable slope) built-in equation in this Prism program was used to fit the curves.

[2] = Blood pressure in anesthetized rats after i.v. bolus; assay type: in vivo, Sabra rats
Protocol: The protocol for testing blood pressure was applied essentially as previously described [Shochina, M. and Horowitz, M. (1989) J. Therm. Biol. 14, 109 113]. Adult male Sabra rats weighing between 225 to 250 g had their femoral vein cannulated for intravenous (i.v.) drug administration. Anesthesia was induced by the intraperitoneal (i.p.) injection of pentobarbital sodium 6%, 60 mg/kg. The femoral artery was cannulated and a catheter (PE 10 cannulae) was connected to a pressure transducer for continuous monitoring of blood pressure with a physiograph (AcKnowledge program). After a 30 minute stabilization period, the animals were injected with either vehicle (sahine:ethanol:Emulphor® 18:1:1) or the drug (Compound 1, as described above, varying from 1 to 10 mg/kg) injected in bolus i.v. in volumes ≧500 μl. The changes in blood pressure were monitored for 60 minutes. […] The hypotensive activity of Compound 1 leads the way to a new class of atypical cannabinoids with no psychotropic activity and with a mechanism of action differing from the anti-hypertensive drugs known to date.

rat aortic rings [3] = experiment: Relaxation of phenylephrine pre-contracted aortic rings; parameters: species or system Sabra rats; details: for maximum vasorelaxation: FIG. 2A
Protocol: Abdominal aortic rings of male Sabra rats of 300 g average body weight were obtained from the animal facility of the Hebrew University of Jerusalem, campus Ein Kerem, Jerusalem, Israel. The animals were anaesthetized by an intra-peritoneal injection of pentobarbital (50 mg kg^−1). After thoracotomy, the aorta was excised, transferred to a dish filled with Krebs-Henseleit buffer (composition in mM: NaCl 150.0, KCl 5.4, MgSO4 1.17, NaH2 PO4 1.18, NaHCO3 6.0, CaCl2 1.0, HEPES 20.0, glucose 5.5, pH 7.4), cleared of periadventitial tissue, and cut into ring segments (3 mm in length). Only segments of the abdominal aorta were used. Two stainless-steel hooks were carefully passed through the lumen of each ring. One hook was connected to an isometric force transducer (BIOPAC Instruments, Goleta, Calif.) to measure tension in the vessels. The rings were placed in a 10-ml organ bath, gassed with 5% CO2 in O2 and maintained at 37° C. The rings were stretched until an optimal basal tension of 1.0 g. After this tension was achieved they were allowed to equilibrate for 60 minutes with the bath fluid being changed every 15-20 min. Baseline tension usually stabilized within 60 min of mounting, during which time there were four replacements of bathing solution. The segment was then pre-contracted by 5 μM phenylephrine. […] The levels of relaxation were then measured. The endothelial function was assessed by testing the relaxant effect of acetylcholine (10 nM-[…]) on aortic rings pre-contracted with phenylephrine. Failure of acetylcholine to elicit relaxation of aortic rings previously subjected to rubbing of the intimal surface was taken as evidence of endothelium removal. Concentration-response curves were generated by cumulative addition of the agonist. Whenever antagonists (PTX 0.5 μg/ml, SR-141716 A, SR-144528 or 10 μM of 0-1918) were used, they were added 20 min before the agonist (FIG. 2B). All experiments were conducted with aluminum foil-covered organ bath to prevent light-induced degradation of the drugs.

cannabinoid receptor CB1 [4] = target: T2, cannabinoid receptor CB1 (Rattus norvegicus, UniProt P20272); experiment: Cannabinoid receptor binding, [3H]HU-243 displacement, synaptosomal membranes; details: data not shown
T2 construct: from tissue
Protocol: as §1

cannabinoid receptor CB1 [5] = target: T2, cannabinoid receptor CB1; details: high affinity receptor probe; read-out: dissociation constant; cited from earlier work

T2 sequence (P20272 whole entry): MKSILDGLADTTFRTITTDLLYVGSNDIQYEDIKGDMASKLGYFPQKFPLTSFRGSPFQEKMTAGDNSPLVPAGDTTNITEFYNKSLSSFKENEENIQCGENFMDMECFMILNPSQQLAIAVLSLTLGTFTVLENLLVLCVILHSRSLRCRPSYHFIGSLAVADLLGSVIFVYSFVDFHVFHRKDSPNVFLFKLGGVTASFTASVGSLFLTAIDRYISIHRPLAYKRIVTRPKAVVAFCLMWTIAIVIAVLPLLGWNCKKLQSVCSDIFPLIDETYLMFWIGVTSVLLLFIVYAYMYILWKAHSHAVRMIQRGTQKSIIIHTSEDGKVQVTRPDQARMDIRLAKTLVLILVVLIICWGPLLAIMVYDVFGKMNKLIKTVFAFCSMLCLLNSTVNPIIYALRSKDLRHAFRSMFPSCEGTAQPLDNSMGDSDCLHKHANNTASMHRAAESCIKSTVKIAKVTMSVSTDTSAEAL
T1 sequence (P34972 whole entry): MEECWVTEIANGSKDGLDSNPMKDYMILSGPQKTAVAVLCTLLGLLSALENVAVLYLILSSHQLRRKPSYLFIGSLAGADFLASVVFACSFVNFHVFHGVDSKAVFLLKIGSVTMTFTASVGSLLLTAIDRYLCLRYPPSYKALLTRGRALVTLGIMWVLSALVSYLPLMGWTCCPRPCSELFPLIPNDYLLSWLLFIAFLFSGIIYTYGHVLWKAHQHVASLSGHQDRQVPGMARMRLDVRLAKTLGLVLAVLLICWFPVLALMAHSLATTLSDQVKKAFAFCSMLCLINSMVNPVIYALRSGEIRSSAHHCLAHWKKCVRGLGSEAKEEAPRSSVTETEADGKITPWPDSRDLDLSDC

C=C(C)[C@@H]1CCC(C)=C[C@H]1c1c(O)cc(O)cc1CCCCC (relative stereo) [Abn-CBD, (−)-4-(3-3,4-trans-p-menthadien-1,8)-yl-olivetol]
antagonism by O-1918 (rat aortic rings [1]): antagonized by 0-1918

CCCCCCC(C)(C)c1cc(O)c(C/C=C(\C)CCC=C(C)C)c(O)c1 [Compound 1, 2-geranyl-5-(1,1-dimethylheptyl)-resorcinol]
binding to CB2 (cannabinoid receptor CB2): no binding
effect on blood pressure (BP) ([2]; 2.5 mg/kg i.v., FIG. 1): Reduction in blood pressure is already observed
change in heart rate ([2]; 5 mg/kg i.v.): without causing change in the heart rate
effect on blood pressure (BP) ([2]; 5 mg/kg i.v.): caused hypotension
effect on blood pressure (BP) ([2]; 5 mg/kg i.v., listed as CBG-DMH): the effect becomes much more pronounced
mean systolic blood pressure over 60 minutes ([2]; 1 to 10 mg/kg bolus i.v., FIG. 1): clear reduction of the systolic blood pressure
antagonism of hypotensive effect by CBD ([2]; CBD in similar doses): antagonized by CBD
antagonism of relaxation by O-1918 (rat aortic rings [3]; 10 μM O-1918 added 20 min before agonist, FIG. 2B, listed as CBG-DMH): did not result in antagonism; also recorded: does not antagonize
relaxation of pre-contracted segments (rat aortic rings [3]; cumulative doses, 5 μM phenylephrine pre-contraction): led to relaxation of the contracted segments
maximum vasorelaxation (rat aortic rings [3]; denuded artery): 25%
maximum vasorelaxation (rat aortic rings [3]; intact artery): 55%
aortic vasorelaxant effect in presence of pertussis toxin (rat aortic rings [3]; pertussis toxin 0.5 μg/ml, data not shown): inhibited in the presence of pertussis toxin
vasodilator function (rat aortic rings [3]; preliminary data): functions as a vasodilator
binding to CB1 (cannabinoid receptor CB1 [4]): no binding

CCCCCCC(C)(C)c1cc(O)c2c(c1)OC(C)(C)[C@@H]1CC[C@@H](CO)C[C@@H]21 [[^3H]HU-243]
Kd (cannabinoid receptor CB1 [5]): 0.045 nM
